The subject of one series is B16 melanoma BL6. In words: Antitumor effect in mice subcutaneously transplanted with B16 melanoma BL6. The note with it: for Therapeutic index: MTD/MED; for Effective dose range: range from MED to MTD, antitumor effect of 58% or more considered effective. The class given is in vivo, Mice (C57BL/6). The text has this:
(§1) Mice (C57BL/6, Charles River Japan) were subcutaneously transplanted with B16 melanoma BL6 (Cancer Res., Poste, G., Fidler, I. J. et al., 1980, 40:1636; Bioorg. Med. Chem. Lett., Takeda, Y. et al., 2003, 13:185-190), or M5076 (obtained from Japanese Foundation for Cancer Research), which is a histiocytoma expressing P-gp. Four days after the transplantation in the case of B16 melanoma BL6, or 8 to 10 days after the transplantation in the case of M5076, each test compound suspended in a 0.5% aqueous solution of carboxymethylcellulose sodium, or dissolved in EtOH:Tween 80:5% glucose=5:5:90 (v/v %) was orally (po) or intravenously (iv) administered to the mice. Ten days after the administration in the case of B16 melanoma BL6, or 8 to 10 days after the administration in the case of M5076, the mice were dissected, and tumor weights were measured. The antitumor effect was calculated in accordance with the following equation.
(§2) [1−(Average tumor weight of compound administration group/average tumor weight of solvent administration group)]×100
(§3) An antitumor effect of 58% or more was considered effective (Int. J. Cancer, 1989, 43:637-44), and the maximum tolerance dose (MTD, maximum dose not causing death, mg/kg) and minimum effective dose (MED, mg/kg) showing effectiveness were obtained, respectively. The therapeutic index was calculated in accordance with the equation: MTD/MED.
(§4) ND means that the test was not performed. The effective dose range means the range of from MED to MTD.

The test system of series [1] is M5076 (histiocytoma expressing P-gp). In words: Antitumor effect in mice subcutaneously transplanted with M5076. It is filed as in vivo, Mice (C57BL/6). The following applies: for Therapeutic index: MTD/MED; for Effective dose range: range from MED to MTD, antitumor effect of 58% or more considered effective.
Description: as §1, §2, §3, §4

The nature of series [2]: Solubility in first and second solution for disintegration test (Japanese Pharmacopoeia). It is filed as physicochemical. The note with it: 12 hours or longer; for solubility: thermodynamic from solid. As for the experimental part:
Solubility of each compound was determined in the first solution for disintegration test according to Japanese Pharmacopoeia (henceforth referred to as the first solution, solution obtained by adding 7 mL of hydrochloric acid and water to 2.00 g of sodium chloride to dissolve sodium chloride and fill up the solution to 1000 mL, pH 1.2) and the second solution for disintegration test according to Japanese Pharmacopoeia (henceforth referred to as the second solution, solution obtained by adding 118 mL of 0.2 mol/L solution of sodium hydroxide to 6.80 g of potassium dihydrogenphosphate, adding water to the mixture to dissolve potassium dihydrogenphosphate and filling up the solution to 1000 mL, pH 6.8).
Each test compound was dissolved in 100% dimethyl sulfoxide (DMSO) at a concentration of 10 mM, and 50 μL of the solution was lyophilized. The lyophilized test compound was added with 250 μL of the first solution or second solution, and the mixture was stored at room temperature for 12 hours or longer under light shielding, and filtered (0.7 μm). The filtrate was taken in a volume of 90 μL, and added with 50% DMSO (90 μL) to obtain a two-fold diluted solubility sample. The two-fold dilution solubility sample was taken in a volume of 20 μL, and added with 50% DMSO (180 μL) to obtain a […] diluted solubility sample. Solubility of each test sample was determined by quantifying the test compound in the resulting diluted solubility test samples using high-performance liquid chromatography.

The mark [3] stands for this setting: aqueous buffer, second solution for disintegration test, pH 6.8, room temperature, read-out: Solubility (μg/mL) pH 6.8.
[4] abbreviates: simulated gastric fluid, first solution for disintegration test, pH 1.2, room temperature, read-out: Solubility (μg/mL) pH 1.2.
Setting [5] is: first solution for disintegration test, pH 1.2, room temperature.
Where [6] appears, read: second solution for disintegration test, pH 6.8, room temperature.

SMILES strings stand for the structures. ≈ marks a conversion by molar mass, not a printed value. Read-outs that look alike come from different tables or passages of the source.

The values below come from US20090186868A1, “Taxane Compound Having Azetidine Ring Structure” (Daiichi Sankyo Company Limited, priority 2005, published 2009).

Consider `CC(=O)O[C@@]12CO[C@@H]1CC[C@@]1(C)[C@@H]3O[C@H](CN4CC[C@H]4CO)O[C@@H]3C3=C(C)[C@@H](OC(=O)[C@H](O)[C@@H](NC(=O)OC(C)(C)C)c4ncccc4F)C[C@@](O)([C@@H](OC(=O)c4ccccc4)[C@@H]12)C3(C)C` [Example 22, (1S,2S,3R,4S,5R,8R,9S,10R,13S)-4-(Acetoxy)-2-(benzoyloxy)-5,20-epoxy-1-hydroxy-9,10-{(1S)-2-[(2S)-2-hydroxymethylazetidino]ethylidenedioxy}tax-11-en-13-yl (2R,3S)-3-(tert-butoxycarbonylamino)-3-(3-fluoro-2-pyridyl)-2-hydroxypropionate], for which the Therapeutic index in the series on B16 melanoma BL6 (B16 Melanoma BL6, iv) stood at 6.0; in the series on B16 melanoma BL6 (B16 Melanoma BL6, po), 4.2; in series [1] (M5076, iv), 2.0; in series [1] (M5076, po), 2.0. Also, the “Effective dose range” value is 12.0 to 24.5 mg/kg in series [1] (M5076, iv) and 17.2 to 35 mg/kg in series [1] (M5076, po). The solubility in series [2] (setting [3]) was 85 µg/mL (≈ 92 µM); in series [2] (setting [4]) it was 1100 µg/mL (≈ 1190 µM).
Take `CC(=O)O[C@@]12CO[C@@H]1CC[C@@]1(C)[C@@H]3O[C@H](CN4CCC4)O[C@@H]3C3=C(C)[C@@H](OC(=O)[C@H](O)[C@@H](NC(=O)OC(C)(C)C)C(F)F)C[C@@](O)([C@@H](OC(=O)c4ccccc4)[C@@H]12)C3(C)C` [Example 31, (1S,2S,3R,4S,5R,8R,9S,10R,13S)-4-(Acetoxy)-9,10-[(1S)-2-(azetidino)ethylidenedioxy]-2-(benzoyloxy)-5,20-epoxy-1-hydroxytax-1′-en-13-yl (2R,3R)-3-(tert-butoxycarbonylamino)-4,4-difluoro-2-hydroxybutyrate]: the Therapeutic index in the series on B16 melanoma BL6 (B16 Melanoma BL6, iv) amounted to 2.9; in the series on B16 melanoma BL6 (B16 Melanoma BL6, po), 2.0; in series [1] (M5076, iv), 1.0. In addition, the “Effective dose range” value in the series on B16 melanoma BL6 (B16 Melanoma BL6, iv) is 3.43 to 10.0 mg/kg; in the series with B16 melanoma BL6 (B16 Melanoma BL6, po), 8.82 to 18.0 mg/kg; in series [1] (M5076, iv) it was 10.0 mg/kg. In series [2] (setting [5]), the “Solubility (μg/mL) pH 1.2” value was found to be 1000 μg/mL. Besides, the “Solubility (μg/mL) pH 6.8” value in series [2] (setting [6]) is on record as 160 μg/mL.
As to `CC(=O)OC12COC1CCC1(C)C3OC(CN4CCC4)OC3C3=C(C)C(OC(=O)C(O)C(CF)NC(=O)OC(C)(C)C)CC(O)(C(OC(=O)c4ccccc4)C12)C3(C)C` [Example 34, (1S,2S,3R,4S,5R,8R,9S,10R,13S)-4-(Acetoxy)-9,10-[(1S)-2-(azetidino)ethylidenedioxy]-2-(benzoyloxy)-5,20-epoxy-1-hydroxytax-11-en-13-yl (2R,3R)-3-(tert-butoxycarbonylamino)-4-fluoro-2-hydroxybutyrate], in the series on B16 melanoma BL6 (B16 Melanoma BL6, iv), the Therapeutic index stood at 4.2 and the “Effective dose range” value is 10.1 to 42.0 mg/kg. For the same compound, in series [2] (setting [5]), the “Solubility (μg/mL) pH 1.2” value was determined as 830 μg/mL. For the same compound, the “Solubility (μg/mL) pH 6.8” value in series [2] (setting [6]) was determined as 310 μg/mL.
Turning to `CC(=O)O[C@@]12CO[C@@H]1CC[C@@]1(C)[C@@H]3O[C@H](CN4CCC4)O[C@@H]3C3=C(C)[C@@H](OC(=O)[C@H](O)[C@@H](NC(=O)OC(C)(C)C)c4nccs4)C[C@@](O)([C@@H](OC(=O)c4ccccc4)[C@@H]12)C3(C)C` [Example 40, (1S,2S,3R,4S,5R,8R,9S,10R,13S)-4-(Acetoxy)-9,10-[(1S)-2-(azetidino)ethylidenedioxy]-2-(benzoyloxy)-5,20-epoxy-1-hydroxytax-11-en-13-yl (2R,3R)-3-(tert-butoxycarbonylamino)-2-hydroxy-3-(2-thiazolyl)propionate], the Therapeutic index with B16 melanoma BL6 (B16 Melanoma BL6, iv) was determined as 4.2. Also, the solubility in series [2] (setting [3]) is 150 µg/mL (≈ 170 µM); in series [2] (setting [4]), 1000 µg/mL (≈ 1130 µM).
